Key:
Format in all cases: physicochemical
Conditions in all cases: pH 2 to 3
[1] = Example 4 reactive solvent extraction, 90% Alamine 336/10% MIBK, 25° C.
Experimental: (§1) A variety of analytical methods can be employed to analyze the reactants and products produced using the present methods include HPLC, GC, ion selective electrodes, MS, NMR, etc. HPLC was used to measure glycolic acid and various related products. Briefly, samples are diluted with water (as needed to be within HPLC detection range) and mixed 1:1 with 0.2 M n-propanol in water (HPLC internal standard). HPLC Analytical Method: (BioRad HPX 87H ion exclusion column (BioRad, Hercules, Calif.), 300 mm×7.8 mm; 0.01 N H2SO4 mobile phase; 1.0 mL/min flow at 50° C.; 10 μL injection volume; RI detector and UV 210 nm, 20 min analysis time). HPLC Equipment: (Waters 2695 ‘Alliance’ Separations Module, 2410 Refractive Index Detector, 2487 Dual λ Absorbance Detector and Empower Pro Software (Waters Corp, Milford, Mass.).
Solvent Extraction Using Approximately 90% C8-C10 Trialkylamine in Combination with 10% Methyl Isobutyl Ketone at 25° C.
(§2) Into a 4-mL glass reactor equipped with magnetic stir bar was placed 1 mL of a mixed solvent containing 90% (volume/volume) Alamine® 336 (Cognis) and 10% (volume/volume) methyl isobutyl ketone (MIBK). The pH of an aqueous solution of ammonium glycolate (5 wt % to 40 wt %) was adjusted to pH 2 to 3 with concentrated sulfuric acid, then 1 mL of the resulting aqueous solution was added to the reactor. The resulting mixture was stirred for 30 minutes at 25° C.

[2] = Example 2 reactive solvent extraction, 70% Alamine 336/10% MIBK/20% kerosene, 50° C.
Experimental: as §1
Solvent Extraction Using Approximately 70% C8-C10 Trialkylamine in Combination with 10% Methyl Isobutyl Ketone and 20% Kerosene at 50° C.
as §2, with “70%” for “90%”, “(Cognis),” for “(Cognis) and”, “(MIBK) and 20% (volume/volume) kerosene.” for “(MIBK).”, “50°” for “25°”

[3] = Example 13 reactive solvent extraction, 90% Alamine 336/10% toluene, 75° C.
Experimental: as §1
Solvent Extraction Using Approximately 90% C8-C10 Trialkylamine in Combination with 10% Toluene at 75° C.
as §2, with “(Cognis),” for “(Cognis) and”, “toluene.” for “methyl isobutyl ketone (MIBK).”, “75°” for “25°”

[4] = Example 3 reactive solvent extraction, 70% Alamine 336/10% MIBK/20% kerosene, 75° C.
Experimental: as §1
Solvent Extraction Using Approximately 70% C8-C10 Trialkylamine in Combination with 10% Methyl Isobutyl Ketone and 20% Kerosene at 75° C.
as §2, with “70%” for “90%”, “(Cognis),” for “(Cognis) and”, “(MIBK) and 20% (volume/volume) kerosene.” for “(MIBK).”, “75°” for “25°”

[5] = initial 3.6 wt % glycolic acid in aqueous phase
[6] = initial 8.5 wt % glycolic acid in aqueous phase
[7] = initial 12.1 wt % glycolic acid in aqueous phase
[8] = initial 16.1 wt % glycolic acid in aqueous phase
[9] = initial 20.6 wt % glycolic acid in aqueous phase
[10] = initial 25.1 wt % glycolic acid in aqueous phase
[11] = initial 29.1 wt % glycolic acid in aqueous phase
[12] = initial 32.8 wt % glycolic acid in aqueous phase

O=C(O)CO [glycolic acid]
Partition coefficient (wt % org./wt % aq.) [1, 5]: 1.98 | Partition coefficient (wt % org./wt % aq.) [1, 6]: 1.57 | Partition coefficient (wt % org./wt % aq.) [1, 7]: 1.38 | Partition coefficient (wt % org./wt % aq.) [1, 8]: 1.44 | Partition coefficient (wt % org./wt % aq.) [1, 9]: 1.13 | Partition coefficient (wt % org./wt % aq.) [1, 10]: 1.19 | Partition coefficient (wt % org./wt % aq.) [1, 11]: 1.14 | Partition coefficient (wt % org./wt % aq.) [1, 12]: 0.92 | Partition coefficient (wt % org./wt % aq.) [2, 5]: 0.32 | Partition coefficient (wt % org./wt % aq.) [2, 6]: 0.66 | Partition coefficient (wt % org./wt % aq.) [2, 7]: 0.63 | Partition coefficient (wt % org./wt % aq.) [2, 8]: 0.74 | Partition coefficient (wt % org./wt % aq.) [2, 9]: 0.69 | Partition coefficient (wt % org./wt % aq.) [2, 10]: 0.83 | Partition coefficient (wt % org./wt % aq.) [2, 11]: 0.68 | Partition coefficient (wt % org./wt % aq.) [2, 12]: 0.61 | Partition coefficient (wt % org./wt % aq.) [3, 5]: 0.51 | Partition coefficient (wt % org./wt % aq.) [3, 6]: 0.58 | Partition coefficient (wt % org./wt % aq.) [3, 7]: 0.67 | Partition coefficient (wt % org./wt % aq.) [3, 8]: 0.63 | Partition coefficient (wt % org./wt % aq.) [3, 9]: 0.65 | Partition coefficient (wt % org./wt % aq.) [3, 10]: 0.73 | Partition coefficient (wt % org./wt % aq.) [3, 11]: 0.75 | Partition coefficient (wt % org./wt % aq.) [3, 12]: 0.75 | Partition coefficient (wt % org./wt % aq.) [4, 5]: 0.16 | Partition coefficient (wt % org./wt % aq.) [4, 6]: 0.22 | Partition coefficient (wt % org./wt % aq.) [4, 9]: 0.49 | Partition coefficient (wt % org./wt % aq.) [4, 10]: 0.56 | Partition coefficient (wt % org./wt % aq.) [4, 11]: 0.54 | Partition coefficient (wt % org./wt % aq.) [4, 12]: 0.52

From patent US20060160197A1 (priority 2004, published 2006)
